# Test results as given in article PMC9016025, “Translational imaging of the fibroblast activation protein (FAP) using the new ligand [^68Ga]Ga-OncoFAP-DOTAGA” (European Journal of Nuclear Medicine and Molecular Imaging, 2021).
# Like-named read-outs stand apart in the source and are kept apart here.
# Key:
# [1] = system: subcutaneous HT1080 (FAP−) and HT1080-hFAP (FAP+) tumors; test: Pharmacokinetic modeling (2TCM, Patlak) of small animal PET with extracorporeal arterial input function; type: in vivo, mouse; set-up: Vs (distribution volume) / k1 / k2 / k3 / k4: unit not given here; details: geometric mean ± SD; for Vs (distribution volume) / k1 / k2 / k3 / k3/k4 / k4: 2TCM
# Protocol: Before PET/MRI at day 12, p.i. mice received surgery to establish an extracorporeal circulation shunting of the blood from the femoral artery to the tail vein or contralateral femoral vein as described previously. At 40 cm from the femoral artery, the shunt (0.3 mm inner diameter silicon; total extracorporeal volume 56.6 μL) was led through a Twilite coincidence detector. Acquired blood activity curves were calibrated with a separately measured calibration factor for ^68Ga according to vendor’s instructions. The curves were corrected for delay and dispersion based on a numerical deconvolution, using dispersion kernels derived from measuring step functions at defined pumping speeds. Standard 2-tissue compartmental (2TCM) pharmacokinetic (PK) modeling and Patlak analysis was performed for the triceps muscle, and FAP^− and FAP^+ tumors using PMOD version 3.703 (PMOD Technologies LLC) and was based on mean PET VOI time activity curves and Twilite-based extracorporeal arterial input functions (AIF). AIF plasma fraction was calculated based on direct hematocrit measurements after imaging (StatStrip® Hb/Hct, Nova Biomedical).
# [2] = system: subcutaneous HT1080 (FAP−) and HT1080-hFAP (FAP+) tumors; test: Dynamic and late static small animal PET/MRI in tumor-bearing mice; type: in vivo, mouse
# Protocol: Tumor cells (10^6 cells in 50 μL saline) were implanted subcutaneously in the shoulders of NMRI mice with HT1080 wildtype (FAP^−) in one shoulder and with stably transfected human FAP-expressing HT1080 cells (FAP^+) in the contralateral shoulder. Cells were kindly provided by U. Haberkorn, University of Heidelberg. At day 11 after implantation, mice received whole-body PET/MRI (1 T Mediso nanoScan) imaging with list mode PET for 60 min and additional non-contrast-enhanced anatomic, coronal T1-weighted MRI, followed by late static PET/MRI imaging 180 min p.i. Either ^68Ga-OncoFAP or ^68Ga-FAPI-46 (n = 6 each) was injected into the tail vein with a syringe pump at 1000 μL/min in a volume of 100 μL 30 s after the start of PET. At the next day (day 12 after implantation), the same mice were injected with the respective other FAP-tracer and received identical dynamic PET/MRI for 60 min. Sixty minutes p.i., mice were sacrificed under deep narcosis and organs and body fluids were harvested, weighed, and γ-counted. All involved measuring hardware (dose calibrator ISOMED 2010, automatic γ-counter PERKIN ELMER WALAC 2480, Twilite coincidence detector Swisstrace, PET/MRI) were cross-calibrated for ^68Ga. Overall, 3 scans were rejected, because of extravasation (day 11 OncoFAP), inability of i.v. access (day 12 FAPI-46), and insufficient radioactivity (day 12 FAPI-46), respectively. The resulting injected amounts of radioactivity for the remaining 11 ^68Ga-OncoFAP scans and 10 ^68Ga-FAPI-46 scans were 19.2 ± 4.4 MBq and 18.2 ± 4.8 MBq, respectively.
# Dynamic PET scans were reconstructed in time frames of 1 × 30 s, 5 × 12 s, 5 × 60 s, 4 × 300 s, 2 × 600 s, and 1 × 810 s. Frames 12 and 18 and the late scan are referred to as (rounded) 10 min, 1 h, and 3 h throughout the manuscript. Volume of interests (VOI) of tumors and representative organs were defined on anatomic MRI. Resulting tumor volumes for ^68Ga-OncoFAP scans for FAP^+ and FAP^− tumors were 0.4 ± 0.36 and 0.22 ± 0.15, and for FAPI-46 scans were 0.34 ± 0.20 and 0.2 ± 0.17 (n.s. different between the two tracers).
# [3] = system: patients with breast cancer; set-up: method as in PMID 34636633; details: previously published patient sample, cited from earlier work
smiles,measurement,setting,value
"CN(CCCN1CCN(C(=O)CN2CCN(CC(=O)[O-])CCN(CC(=O)[O-])CCN(CC(=O)[O-])CC2)CC1)c1ccc2nccc(C(=O)NCC(=O)N3CC(F)(F)C[C@H]3C#N)c2c1.[68Ga+3] [^68Ga-FAPI-46, [^68Ga]Ga-FAPI-46]",Vs (distribution volume),[1]; tumor FAP+,0.25 ± 0.29
same,k1,[1]; tumor FAP+,0.042 ± 0.012
same,k2,[1]; tumor FAP+,0.298 ± 0.038
same,k3,[1]; tumor FAP+,0.029 ± 0.024
same,k3/k4,[1]; tumor FAP+,1.77 ± 2.74
same,k4,[1]; tumor FAP+,0.017 ± 0.011
same,Vs (distribution volume),"[1]; tumor FAP+, listed as FAPI-46",0.246 ± 0.287
same,k3/k4,"[1]; tumor FAP+, listed as FAPI-46",1.770 ± 2.737
same,Vs (distribution volume),[1]; tumor FAP−,0.121 ± 0.227
same,k1,[1]; tumor FAP−,0.049 ± 0.003
same,k2,[1]; tumor FAP−,0.323 ± 0.115
same,k3,[1]; tumor FAP−,0.012 ± 0.031
same,k3/k4,[1]; tumor FAP−,0.801 ± 0.908
same,k4,[1]; tumor FAP−,0.015 ± 0.038
same,Patlak intercept,[1]; tumor FAP+,0.176 ± 0.035
same,Patlak slope,[1]; tumor FAP+,0.002 ± 0.001
same,Patlak intercept,[1]; tumor FAP−,0.207 ± 0.019
same,Patlak slope,[1]; tumor FAP−,0.000 ± 0.000
same,SUVmean blood,[2]; small animal PET 10 min p.i.,0.52 ± 0.09
same,SUVmean kidney,[2]; small animal PET 10 min p.i.,1.43 ± 0.88
same,SUVmean liver,[2]; small animal PET 10 min p.i.,0.57 ± 0.17
same,SUVmean muscle,[2]; small animal PET 10 min p.i.,0.35 ± 0.07
same,SUVmean spleen,[2]; small animal PET 10 min p.i.,0.40 ± 0.19
same,SUVmean tumor FAP+,[2]; small animal PET 10 min p.i.,0.40 ± 0.07
same,SUVmean tumor FAP-,[2]; small animal PET 10 min p.i.,0.39 ± 0.07
same,SUVmean blood,[2]; small animal PET 1 h p.i.,0.19 ± 0.07
same,SUVmean kidney,[2]; small animal PET 1 h p.i.,0.54 ± 0.54
same,SUVmean liver,[2]; small animal PET 1 h p.i.,0.28 ± 0.16
same,SUVmean muscle,[2]; small animal PET 1 h p.i.,0.08 ± 0.04
same,SUVmean spleen,[2]; small animal PET 1 h p.i.,0.15 ± 0.07
same,SUVmean tumor FAP+,[2]; small animal PET 1 h p.i.,0.25 ± 0.06
same,SUVmean tumor FAP-,[2]; small animal PET 1 h p.i.,0.10 ± 0.05
same,SUVmean kidney,[2]; small animal PET 3 h p.i.,0.07 ± 0.02
same,SUVmean liver,[2]; small animal PET 3 h p.i.,0.28 ± 0.19
same,SUVmean muscle,[2]; small animal PET 3 h p.i.,0.02 ± 0.00
same,SUVmean spleen,[2]; small animal PET 3 h p.i.,0.09 ± 0.06
same,SUVmean tumor FAP+,[2]; small animal PET 3 h p.i.,0.16 ± 0.06
same,SUVmean tumor FAP-,[2]; small animal PET 3 h p.i.,0.02 ± 0.01
same,Blood (prone SUVmean),[3],1.7 ± 0.2
same,Blood (supine SUVmean),[3],1.3 ± 0.3
same,Bone (supine SUVmean),[3],0.4 ± 0.1
same,Breast cancer LN metastasis (supine SUVmax),[3],12.2 ± 6.2 (n = 13)
same,Distant metastases any cancer (supine SUVmax),[3],12.3 ± 0.2 (n = 2)
same,Kidney (supine SUVmean),[3],1.5 ± 0.4
same,Liver (supine SUVmean),[3],0.9 ± 0.3
same,Muscle (supine SUVmean),[3],1.1 ± 0.2
same,Pancreas (supine SUVmean),[3],1.1 ± 0.4
same,Primary breast cancer (prone SUVmax),[3],14.0 ± 5.7 (n = 17)
same,Spleen (supine SUVmean),[3],1.1 ± 0.8
same,Uterus (supine SUVmax),[3],11.6 ± 4.5 (n = 18)
same,Uterus (supine SUVmax),[3]; listed as FAPI-46,11.6 ± 4.5
